The results in this text go back to ChEMBL document CHEMBL5344445, “Profiling the Linear Peptides of Venom from the Brazilian Scorpion Tityus serrulatus: Structural and Functional Characterization” (J Nat Prod, 2024).

Data set [1] deals with Erythrocyte. Briefly: (§1) Hemolytic activity in Wistar rat RBC at 5 to 500 uM incubated for 120 mins. The conditions noted are these: erythrocyte, 2 h, 500 µM, dose 5-500 µM. The format is toxicity, cell-based.
A short description of data set [2]: Induction of Wistar rat mast cell degranulation assessed as beta-D-glusosaminidase release at 5 to 500 uM incubated for 15 mins relative to control. The format is toxicity, cell-based. The conditions noted are these: 0.25 h, dose 5-500 µM.
A short description of data set [3]: Induction of Wistar rat mast cell lysis assessed as LDH release at 5 to 500 uM incubated for 5 mins in presence of NADH relative to control. Format: toxicity, cell-based. The conditions noted are these: dose 5-500 µM. For orientation: Release of lactate dehydrogenase indicates damage to the cell membrane.
The test system of data set [4] is Escherichia coli. Briefly: Antibacterial activity against Escherichia coli. Format: functional, organism-based.
Data set [5] relates to Klebsiella aerogenes. Nature of the data set: Antibacterial activity against Enterobacter aerogenes. The format is functional, organism-based.
Data set [6] deals with Staphylococcus aureus. Nature of the data set: Antibacterial activity against Staphylococcus aureus. The format is functional, organism-based.
Data set [7] has as its system Streptococcus pneumoniae. Briefly: Antibacterial activity against Streptococcus pneumoniae. The format is functional, organism-based.
Data set [8] in a line: Induction of edema formation in Swiss mouse at 2 ug, I.PL measured after 60 mins relative to control. Format: toxicity. The note with it: in vivo, other, 1 h.
Data set [9] can be described thus: Induction of edema formation in Swiss mouse at 2 ug, I.PL measured after 180 mins relative to control. The format is toxicity. The conditions noted are these: in vivo, other, 3 h.
The nature of data set [10]: Induction of edema formation in Swiss mouse at 2 ug, I.PL measured after 300 mins relative to control. The note with it: in vivo, other, 5 h. Format: toxicity.
The nature of data set [11]: Induction of nociception in Swiss mouse at 2 ug, I.PL incubated for 180 mins by von frey test relative to control. The format is toxicity. The note with it: in vivo, other, 3 h.
Data set [12] can be described thus: Induction of nociception in Swiss mouse at 2 ug, I.PL incubated for 60 mins by von frey test relative to control. The format is toxicity. The conditions noted are these: in vivo, other, 1 h.
Data set [13] is described as follows: Induction of nociception in Swiss mouse at 2 ug, I.PL incubated for 300 mins by von frey test relative to control. Format: toxicity. The conditions noted are these: in vivo, other, 5 h.
The nature of data set [14]: Effect on rearing activity in Swiss mouse assessed as increase in frequency at 2 ug, I.PL incubated for 3 to 15 mins by open field test relative to control. Format: toxicity. The note with it: in vivo, other, time 3-15 min.
The nature of data set [15]: Effect on locomotory activity in Swiss mouse assessed as decrease in frequency at 2 ug, I.PL incubated for 3 to 15 mins by open field test relative to control. The format is toxicity. Further details: scale not given: the % may be the effect or the level left. The note with it: in vivo, other, time 3-15 min.
Data set [16] can be described thus: as §1. The format is toxicity, cell-based, Erythrocyte. The conditions noted are these: Wistar, red blood cells (erythrocytes), dose 5-500 µM, read-out: Activity.

Calls of active or inactive are those of the source. The rule behind the calls is not given here. Peptide text beside a SMILES is read from it. Bounds are passed on as bounds.

`CC(C)C[C@H](NC(=O)CNC(=O)CNC(=O)[C@H](Cc1c[nH]cn1)NC(=O)[C@H](CC(=O)O)NC(=O)CNC(=O)[C@H](CO)NC(=O)[C@H](CC(C)C)NC(=O)[C@H](CC(C)C)NC(=O)[C@H](C)NC(=O)[C@H](CC(=O)O)NC(=O)[C@H](CS)NC(=O)CN)C(=O)N[C@@H](CC(C)C)C(=O)N[C@@H](CO)C(=O)N[C@@H](C)C(=O)N[C@@H](CC(N)=O)C(=O)NCC(=O)N[C@@H](CS)C(=O)O` (H-GCDALLSGDHGGLLSANGC-OH): the Activity result in data set [1], in [2], in [3], in [8] (dose 2 µg), in [9] (dose 2 µg) and in [10] (dose 2 µg) was “Non-Toxic” throughout. Further, the Activity entry in data set [11] (dose 2 µg), in [12] (dose 2 µg), in data set [13] (dose 2 µg), in [14] (dose 2 µg) and in data set [15] (dose 2 µg) was “Non-Toxic” each time. Also, the result in [4], in data set [5], in data set [6] and in data set [7] was inactive.

As for H-AEIDFSGIPEDIIKQI-OH, the Activity entry in data set [1], in data set [2], in [3], in data set [8] (dose 2 µg), in data set [9] (dose 2 µg) and in data set [10] (dose 2 µg) was “Non-Toxic” in each case. For the same compound, the Activity in data set [11] (at 2 µg) is listed as 71%; in [12] (at 2 µg), 71%; in data set [13] (at 2 µg), 71%; in data set [14] (at 2 µg) it was “<= 40%”; in data set [15] (at 2 µg), “<= 40%”. The outcome in data set [4], in [5], in data set [6] and in [7] was inactive.

For H-DEGPKSDCKP-OH, in data set [16], the hemolysis at 2 h, up to 500 µM is not above 40%. Besides, the Activity entry in [2] was “Non-Toxic”; in data set [3] it was “Non-Toxic”; in [8] (at 2 µg), 71%; in data set [9] (at 2 µg), 71%; in data set [10] (at 2 µg) it was 71%; in [11] (at 2 µg), 71%. Also, the Activity in [12] (at 2 µg) is 71%; in data set [13] (at 2 µg) it was 71%; in data set [14] (at 2 µg) it was 41%; in data set [15] (dose 2 µg) it was “Non-Toxic”. For the same compound, the outcome in [4], in data set [5], in [6] and in data set [7] was inactive.

As for H-GKGKEILGK-OH, the Activity entry in [1], in [2], in data set [3], in data set [8] (dose 2 µg), in [9] (dose 2 µg) and in data set [10] (dose 2 µg) was “Non-Toxic” throughout. Moreover, the Activity result in [11] (dose 2 µg), in data set [12] (dose 2 µg), in data set [13] (dose 2 µg), in [14] (dose 2 µg) and in data set [15] (dose 2 µg) was “Non-Toxic” throughout. Moreover, the outcome in [4], in [5], in [6] and in data set [7] was inactive.

For H-GLREKHVQ-OH, the Activity result in [1], in [2], in data set [3], in data set [8] (dose 2 µg), in data set [9] (dose 2 µg) and in data set [10] (dose 2 µg) was “Non-Toxic” in each case. Further, the Activity result in data set [11] (dose 2 µg) is listed as “Non-Toxic”; in data set [12] (dose 2 µg) it was “Non-Toxic”; in [13] (dose 2 µg), “Non-Toxic”; in [14] (dose 2 µg), “Non-Toxic”; in data set [15] (at 2 µg), “<= 40%”. The result in data set [4], in data set [5], in data set [6] and in data set [7] was inactive.

Turning to H-ILPNDK-OH, the hemolysis at 2 h, up to 500 µM in data set [16] is not above 40%. For the same compound, the Activity result in [2], in data set [3], in [8] (dose 2 µg), in data set [9] (dose 2 µg), in data set [10] (dose 2 µg) and in [11] (dose 2 µg) was “Non-Toxic” each time. The Activity result in data set [12] (dose 2 µg), in data set [13] (dose 2 µg), in data set [14] (dose 2 µg) and in [15] (dose 2 µg) was “Non-Toxic” throughout. For the same compound, the outcome in [4], in data set [5], in data set [6] and in data set [7] was inactive.

On to H-ILTGKLKCK-OH, for which the Activity result in [1] was “Non-Toxic”; in data set [2] it was “Non-Toxic”; in [3] it was “Non-Toxic”; in [8] (at 2 µg), 71%; in [9] (dose 2 µg), “Non-Toxic”; in data set [10] (dose 2 µg) it was “Non-Toxic”. The Activity in data set [11] (at 2 µg) is listed as 41%; in data set [12] (at 2 µg) it was 41%; in [13] (at 2 µg) it was 41%; in data set [14] (dose 2 µg), “Non-Toxic”; in data set [15] (dose 2 µg), “Non-Toxic”. The result in data set [4], in data set [5], in data set [6] and in [7] was inactive.

Regarding H-KETNAKPPA-OH, the Activity result in [1], in [2], in [3], in [8] (dose 2 µg), in data set [9] (dose 2 µg) and in [10] (dose 2 µg) was “Non-Toxic” throughout. Further, the Activity in data set [11] (at 2 µg) is given as 71%; in [12] (at 2 µg), 41%; in data set [13] (at 2 µg) it was 71%; in data set [14] (at 2 µg), “<= 40%”; in [15] (at 2 µg), “<= 40%”. The outcome in [4], in [5], in data set [6] and in [7] was inactive.

H-KHFGKDSNFPF-NH2: the Activity entry in [1], in [2], in data set [3], in [8] (dose 2 µg), in data set [9] (dose 2 µg) and in data set [10] (dose 2 µg) was “Non-Toxic” in each case. The Activity entry is “Non-Toxic” in data set [11] (dose 2 µg); “Non-Toxic” in [12] (dose 2 µg); “Non-Toxic” in data set [13] (dose 2 µg); “Non-Toxic” in data set [14] (dose 2 µg); “<= 40%” in [15] (at 2 µg). Besides, the result in data set [4], in data set [5], in [6] and in data set [7] was inactive.

As to H-KPVEPVG-OH, the Activity result in data set [1], in data set [2], in data set [3], in data set [8] (dose 2 µg), in [9] (dose 2 µg) and in data set [10] (dose 2 µg) was “Non-Toxic” throughout. The Activity entry in [11] (at 2 µg) is “<= 40%”; in data set [12] (at 2 µg), “<= 40%”; in data set [13] (at 2 µg), “<= 40%”; in data set [14] (at 2 µg), 41%; in data set [15] (dose 2 µg) it was “Non-Toxic”. The result in [4], in [5], in [6] and in data set [7] was inactive.

As for H-SESNTCG-OH, the Activity entry in data set [1], in data set [2], in [3], in data set [8] (dose 2 µg), in data set [9] (dose 2 µg) and in data set [10] (dose 2 µg) was “Non-Toxic” each time. Moreover, the Activity entry in [11] (at 2 µg) was “<= 40%”; in data set [12] (at 2 µg) it was “<= 40%”; in data set [13] (at 2 µg), “<= 40%”; in [14] (at 2 µg), “<= 40%”; in data set [15] (dose 2 µg) it was “Non-Toxic”. The outcome in [4], in [5], in [6] and in data set [7] was inactive.
